Where two headings read alike, the source gives them in different places.
Experiments:
[1] = test system: antibody core fucosylation in CHO DG44 cell line producing h1F6; experiment: Effect of fucose analogs on antibody core fucosylation (h1F6 from CHO DG44 culture); format: cell-based, Chinese hamster; conditions: day 5; for inhibition at 50 µM: 50 μM fucose analog
Experimental: Media was supplemented with insulin like growth factor (IGF), penicillin, streptomycin and either 1 mM or 50 μM of the fucose analog (prepared as described supra). On day 5 post inoculation, the culture was centrifuged at 13000 RPM for 5 minutes to pellet cells; antibodies were then purified from supernatant.
(§1) Antibody purification was performed by applying the conditioned media to protein A resin pre-equilibrated with 1× phosphate buffered saline (PBS), pH 7.4. After washing resin with 20 resin bed volumes of 1×PBS, antibodies were eluted with 5 resin bed volumes of Immunopure IgG elution buffer (Pierce Biotechnology, Rockford, Ill.). A 10% volume of 1M tris pH 8.0 was added to neutralize the eluted fraction.

[2] = test system: CHO DG44 cell line producing h1F6; experiment: Incorporation of fucose analogs into antibodies (h1F6 from CHO DG44 culture); format: cell-based, Chinese hamster
Experimental: The effects of fucose analogs on antibody core fucosylation were tested at concentrations of […] and 1 mM as follows: A CHO DG44 cell line producing a humanized IgG1 anti-CD70 monoclonal antibody, h1F6 (see International Patent Publication WO 06/113909) was cultured at 7.5×10^5 cells per mL in 2 mLs of CHO culture media at 37°, 5% CO2 and shaking at 100 RPM in a 6 well tissue culture plate. Media was supplemented with insulin like growth factor (IGF), penicillin, streptomycin and either 1 mM or 50 μM of the fucose analog (prepared as described supra). On day 5 post inoculation, the culture was centrifuged at 13000 RPM for 5 minutes to pellet cells; antibodies were then purified from supernatant.
as §1, with “fraction. The amount of non-core fucosylated antibody produced was determined as described in Example 7.” for “fraction.”
Certain other fucose analogs were tested for their ability to be incorporated into antibodies. These fucose analogs were tested at concentrations of 50 μM and 1 mM using the methodology as described above and in Example 7.

[3] = Cricetulus griseus, CHO-DG44, 120 h, Table 1, inhibition of core fucosylation of h1F6, read-out: Inhibition at 50 μM
[4] = Cricetulus griseus, CHO-DG44, 120 h, Table 1, 1 mM fucose analog, ND = non-core fucosylated antibody not detected due to poor antibody production or inhibition of cell growth
[5] = Cricetulus griseus, CHO-DG44, 120 h, Table 2, read-out: Inhibition at 50 μM
[6] = Cricetulus griseus, CHO-DG44, 120 h, Table 2, 1 mM fucose analog

CC(=O)O[C@H]([C@H](OC(C)=O)[C@H](CC#N)OC(C)=O)[C@@H](C=O)OC(C)=O [6-cyano fucose tetraacetate, 6-cyanofucose tetraacetate]
inhibition at 50 µM [1, 3]: 30%
inhibition at 1000 µM [1, 4]: > 80%

CC(=O)O[C@H]([C@H](OC(C)=O)[C@H](CBr)OC(C)=O)[C@@H](C=O)OC(C)=O [6-bromo-fucose tetraacetate, 6-bromofucose tetraacetate]
inhibition at 50 µM [1, 3]: 50%
inhibition at 1000 µM [1, 4]: 80%
% Incorporation ([2]; 50 uM): ~50%
% Incorporation ([2]; 1 mM): (50 uM; 20% at 1 mM)

C#C[C@H]1OC(OC(=O)c2ccncc2)[C@@H](OC(=O)c2ccncc2)[C@H](OC(=O)c2ccncc2)[C@@H]1OC(=O)c1ccncc1 (stereo partly drawn) [Alkynyl fucose perisonicotinate, (3S,4R,5R,6R)-6-ethynyl-tetrahydro-2H-pyran-2,3,4,5-tetrayl Tetraisonicotinate]
inhibition at 50 µM [1, 3]: > 80%
inhibition at 1000 µM [1, 4]: > 80%

CC#CC(OC(C)=O)[C@@H](OC(C)=O)[C@@H](OC(C)=O)[C@@H](C=O)OC(C)=O (stereo partly shown) [5-propynyl fucose tetraacetate, 5-propynylarabinose tetraacetate]
inhibition at 50 µM [1, 3]: 50%
inhibition at 1000 µM [1, 4]: > 80%

CC(=O)O[C@H]([C@H](OC(C)=O)[C@H](CCl)OC(C)=O)[C@@H](C=O)OC(C)=O [6-chloro-fucose tetraacetate, 6-chlorofucose tetraacetate]
inhibition at 50 µM [1, 3]: 20%
inhibition at 1000 µM [1, 4]: 20 to 30%

CC(=O)OC1O[C@@H]([C@]2(C)CO2)[C@@H](OC(C)=O)[C@@H](OC(C)=O)[C@@H]1OC(C)=O (stereo partly drawn) [5-methyloxiran-arabinose tetraacetate, (3S,4R,5S,6R)-6-((S)-2-methyloxiran-2-yl)-tetrahydro-2H-pyran-2,3,4,5-tetrayl tetraacetate]
inhibition at 50 µM [1, 3]: ~0%
inhibition at 1000 µM [1, 4]: 35 to 40%

C#C[C@H](OC(C)=O)[C@H]1OC(OC)[C@@H](OC(C)=O)[C@@H]1OC(C)=O (stereo partly drawn) [1-methyl-2,3,4-triacetyl alkynyl fucose, (2R,3R,4S)-2-((S)-1-acetoxyprop-2-ynyl)-5-methoxy-tetrahydrofuran-3,4-diyl Diacetate]
inhibition at 50 µM [1, 3]: 68%
inhibition at 1000 µM [1, 4]: > 80%

C#C[C@@H]1OC(OC(=O)CCOCCOC)[C@@H](OC(=O)CCOCCOC)[C@H](OC(=O)CCOCCOC)[C@@H]1OC(=O)CCOCCOC (stereo partly drawn) [Alkynyl fucose per-PEG ester, (3S,4R,5R,6S)-6-ethynyl-tetrahydro-2H-pyran-2,3,4,5-tetrayl tetrakis(3-(2-methoxyethoxy)propanoate)]
inhibition at 50 µM [1, 3]: > 80%
inhibition at 1000 µM [1, 4]: > 80%

CC(=O)OC1O[C@@H](C)[C@@H](OC(C)=O)[C@@H](OC(C)=O)[C@@H]1Cl (stereo partly drawn) [2-deoxy-2-chlorofucose triacetate, L-2-deoxy-2-chlorofucopyranose-1,3,4-triacetate]
inhibition at 50 µM [1, 5]: 17%
inhibition at 1000 µM [1, 6]: > 80%

CC(=O)O[C@@H]1[C@H](C)O[C@@H](OC(C)=O)C(F)(F)[C@@H]1OC(C)=O [(2S,4R,5R,6S)-3,3-difluoro-6-methyl-tetrahydro-2H-pyran-2,4,5-triyl Triacetate]
inhibition at 50 µM [1, 5]: 0%
inhibition at 1000 µM [1, 6]: 64%

C#C[C@@H]1OC(OC(=O)C(C)C)[C@@H](OC(=O)C(C)C)[C@H](OC(=O)C(C)C)[C@@H]1OC(=O)C(C)C (stereo partly drawn) [Alkynyl fucose perisobutanoate, (3S,4R,5R,6S)-6-ethynyl-tetrahydro-2H-pyran-2,3,4,5-tetrayl tetrakis(2-methylpropanoate)]
inhibition at 50 µM [1, 3]: > 80%
inhibition at 1000 µM [1, 4]: > 80%

C#CC[C@@H]1OC(OC(C)=O)[C@@H](OC(C)=O)[C@H](OC(C)=O)[C@@H]1OC(C)=O (stereo partly drawn) [propargyl fucose tetraacetate, (3S,4R,5R,6S)-6-(prop-2-ynyl)-tetrahydro-2H-pyran-2,3,4,5-tetrayl tetraacetate]
inhibition at 50 µM [1, 3]: ~10%
inhibition at 1000 µM [1, 4]: 10 to 20%
% Incorporation ([2]; 1 mM): 80% (1 mM)

CC(=O)OC1C(C)OC(F)C(F)C1OC(C)=O (stereo not shown) [1,2-difluoro-1,2-didexoy fucose peracetate]
inhibition at 50 µM ([1]; Table 2): >80%
Inhibition at 1 mM ([1]; Table 2, 1 mM fucose analog): >80%

CC(=O)O[C@H]1C[C@H](OC(C)=O)[C@H](OC(C)=O)[C@H](C)O1 [(2S,4S,5R,6S)-6-methyl-tetrahydro-2H-pyran-2,4,5-triyl Triacetate]
inhibition at 50 µM [1, 5]: 0%
inhibition at 1000 µM [1, 6]: 36%

— patent publication US11319526B2, “Methods and compositions for making antibodies and antibody derivatives with reduced core fucosylation” (Seagen Inc., priority 2008, dated 2022)
